Measured values as given in article doi:10.1101/2020.12.17.423306v1 (biorxiv, 2020).

Tests used:
OsHSL1 = target: T1, OsHSL1 (Oryza sativa, UniProt A0A7G1K9G4); assay: HPLC of TFT conversion; type: biochemical
T1 sequence (A0A7G1K9G4 1-350): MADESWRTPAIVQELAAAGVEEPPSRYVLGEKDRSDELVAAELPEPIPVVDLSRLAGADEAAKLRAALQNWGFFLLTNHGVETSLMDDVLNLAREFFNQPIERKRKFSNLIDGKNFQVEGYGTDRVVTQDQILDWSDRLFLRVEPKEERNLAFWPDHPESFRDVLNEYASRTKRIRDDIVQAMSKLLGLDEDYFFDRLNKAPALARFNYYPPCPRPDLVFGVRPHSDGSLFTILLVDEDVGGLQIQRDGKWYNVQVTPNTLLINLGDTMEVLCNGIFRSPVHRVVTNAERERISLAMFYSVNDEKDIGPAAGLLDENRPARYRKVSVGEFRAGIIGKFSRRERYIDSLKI

HIS1 = target: T2, HIS1 (Oryza sativa, UniProt A0A7G1K8F5); assay: HPLC of BBC-OH hydroxylation; type: biochemical
T2 sequence (A0A7G1K8F5 1-351): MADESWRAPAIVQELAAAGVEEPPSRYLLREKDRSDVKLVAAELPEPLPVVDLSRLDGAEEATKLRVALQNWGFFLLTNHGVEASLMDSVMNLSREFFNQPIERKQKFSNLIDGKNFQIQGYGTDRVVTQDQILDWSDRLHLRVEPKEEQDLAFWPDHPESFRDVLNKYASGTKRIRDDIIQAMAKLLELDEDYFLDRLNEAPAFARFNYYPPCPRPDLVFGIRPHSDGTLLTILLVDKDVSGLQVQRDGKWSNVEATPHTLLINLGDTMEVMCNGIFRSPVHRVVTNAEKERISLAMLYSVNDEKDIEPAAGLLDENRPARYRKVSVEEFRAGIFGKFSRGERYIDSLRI

Compound | IC50 (OsHSL1) [µM] | IC50 (HIS1) [µM]
CCOC(=O)C1CC(=O)C(=C(O)C2CC2)C(=O)C1 (centres unmarked) [TE, ethyl-(3-oxido-4-cyclopropionyl-5-oxo) oxo-3-cyclohexenecarboxylate] | ~125 | 
CCC(=O)C1C(=O)CC(C(=O)O)CC1=O (centres unmarked) [prohexadione, 3,5-dioxo-4-propionylcyclohexanecarboxylic acid] |  | 50
